This note sets out measurements from US11528909B2, “Method of controlling nematodes in agricultural crops” (priority 2020, dated 2022).

For test [1], the system named is soybean cyst nematode J2s. As to the kind of experiment: Soybean cyst nematode J2 treatment in Petri dish (cuticle covering, molting, death). It is filed as in vivo. Particulars: for MEAN SCN Covered Cuticle / MEAN SCN Dead J2s: ten freshly hatched J2s per dish, three replicates. An excerpt:
Different developmental stages of soybean cyst nematode were targeted for treatment in soil. Soybean cyst nematode has an egg stage, four juvenile stages (samples J1 to J4), adult male and female stages. From J1 to adult development, during each development stage, the nematode undergoes a molt, that is, a shedding of the outside cuticle and forming a new cuticle.
Ten freshly hatched J2s were removed from pure culture and added to three different concentrations (0.5 weight %, […], and 0.12 weight % of Composition solution in a […] Petri dish containing DI water. Composition is (CH3O)3Si(CH2)3N^+ C18H37(CH3)2 Cl^−.
Observations were made over time under an inverted microscope and compound microscope and for both soybean cyst nematode in Composition and also in just DI water which were replicated three times.

The subject of test [2] is soybean cyst nematode J2s. The test is described as above. It is filed as in vivo. Particulars: 0.25% Composition in DI water; ten freshly hatched J2s per dish, three replicates.

On to `CCCCCCCCCCCCCCCCCC[N+](C)(C)CCC[Si](OC)(OC)OC.[Cl-]` [Composition, 3-(trimethoxysilyl)-propyldimethyloctadecyl ammonium chloride], for which the “MEAN SCN Covered Cuticle” value in test [1] (0.12% Composition in DI water) was found to be 5.3; in test [1] (0.5% Composition in DI water), 5.16; in test [2] it was 5.16. Further, the figures for the “MEAN SCN Dead J2s” value in test [1] (0.12% Composition in DI water), in test [1] (0.5% Composition in DI water) and in test [2] were 6.66, 8.00 and 7.66, respectively. In addition, the “Microscopic observation of J2s after one day” value in test [1] (all concentrations, after one day) is recorded as “accumulates on the cuticle of J2s”. Also, in test [1] (all concentrations, second day), the “Microscopic observation of J2s on the second day” value is “J2s shed the cuticle”. Further, the “Statistical effect on soybean cyst nematode J2s (covered cuticles and dead nematodes versus treatment)” value in test [1] (all tested concentrations) was “significantly affects the soybean cyst nematode J2s”. In test [1] (in vitro), the “Overall effect on the nematode in vitro” value was “cuticle disruption and therefore accelerated molting of the nematode in vitro and ultimate death of the nematodes”.
